34 compounds from patent US20120316169A1, “2-ARYL-PROPIONAMIDE DERIVATIVES USEFUL AS BRADYKININ RECEPTOR ANTAGONISTS AND PHARMACEUTICAL COMPOSITIONS CONTAINING THEM” (DOMPÉ S.P.A., priority 2009, published 2012) can be followed below.

The target of this assay is T1, BKB1 receptors (Homo sapiens, UniProt P46663).
T1 construct: Human (IMR-90) lung fibroblast cells expressing native B1 receptors; endogenous in cells; host or cells: IMR-90 human lung fibroblasts, interleukin-treated to up-regulate BKB1 receptors
T1 sequence (P46663 1-353): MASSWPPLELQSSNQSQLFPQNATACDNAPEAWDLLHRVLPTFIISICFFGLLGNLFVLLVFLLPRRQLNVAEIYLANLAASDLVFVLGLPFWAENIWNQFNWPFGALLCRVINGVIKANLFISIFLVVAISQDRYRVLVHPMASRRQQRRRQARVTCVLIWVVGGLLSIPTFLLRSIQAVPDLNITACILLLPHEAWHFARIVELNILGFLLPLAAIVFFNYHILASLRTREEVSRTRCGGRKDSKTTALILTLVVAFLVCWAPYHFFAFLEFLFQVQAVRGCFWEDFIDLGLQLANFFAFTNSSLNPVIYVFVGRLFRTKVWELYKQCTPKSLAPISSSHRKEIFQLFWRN
The assay is described as follows: Calcium mobilization assay (FLIPR), B1 receptors in IMR-90 cells. In kind it is cell-based. The settings on record: Human IMR-90 lung fibroblast cells, up-regulated BKB1 receptors, agonist desArg10-kallidin (DAKD) 2 to 8 nM, calcium-dependent fluorescence. The procedure:
Calcium mobilization assay (FLIPR)—Human (IMR-90) lung fibroblast cells expressing native B1 receptors were harvested by trypsinization and seeded into black wall/clear bottom 96-well plates (Costar 3904; Corning Life Sciences, Acton, Mass.) at approximately 13,000 cells/well. After 1 day incubation, cells were treated with […] (0.35 ng/ml) in 10% FBS/MEM for 2 h to up-regulate BKB1 receptors. Induced cells were loaded with fluorescent calcium indicator by incubation with 2.3 μM Fluo-4/acetoxymethyl ester (Invitrogen) at 37° C. for 1.5 h in the presence of an anion transport inhibitor (2.5 mM probenecid in 1% FBS/MEM). Extracellular dye was removed by washing with assay buffer (2.5 mM probenecid, 0.1% BSA in 20 mM HEPES/HBSS without bicarbonate or phenol red, pH 7.5) and cell plates were kept in the dark until used. Test compounds were assayed at eight concentrations in triplicate. Addition of test compounds to the cell plate and incubation for 5 min at 35° C., followed by the addition of 2 to 8 nM final BK1 agonist desArg^10-kallidin (DAKD, 3×EC50) was carried out in the fluorimetric imaging plate reader (FLIPR; Molecular Devices) while continuously monitoring calcium-dependent fluorescence.
One may read the IC50 as the concentration that gives 50% inhibition. On to `CC(C)Cc1ccc(C(C)C(=O)Nc2cc[n+](C)cn2)cc1` (stereo not shown) [Compound 39, 1-methyl-4-({2-[4-(2-methylpropyl)phenyl]propanoyl}amino)pyrimidin-1-ium iodide], for which the IC50 was 12.6 µM. The value for `Cc1cc(NC(=O)C(C)c2ccc(CC(C)C)cc2)n(C)n1` (stereo not shown) [Compound 40, N-(1,3-dimethyl-1H-pyrazol-5-yl)-2-[4-(2-methylpropyl)phenyl]propanamide] was 2.09 µM; that for `CCn1nc(C)cc1NC(=O)C(C)c1ccc(Nc2nc(C(F)(F)F)cs2)cc1` (stereo not shown) [Compound 41, N-(1-ethyl-3-methyl-1H-pyrazol-5-yl)-2-(4-{[4-(trifluoromethyl)-1,3-thiazol-2-yl]amino}phenyl)propanamide] was 10 µM; that for `CC1CC(C)CN(CCNC(=O)C(C)c2ccc(Nc3nc(C(F)(F)F)cs3)cc2)C1` (stereo not shown) [Compound 42, N-[2-(3,5-dimethylpiperidin-1-yl)ethyl]-2-(4-{[4-(trifluoromethyl)-1,3-thiazol-2-yl]amino}phenyl)propanamide] was 6.61 µM. Under `CC(C(=O)NC(c1ccco1)N1CCOCC1)c1ccc(Nc2nc(C(F)(F)F)cs2)cc1` (stereo not shown) [Compound 43, N-[furan-2-yl(morpholin-4-yl)methyl]-2-(4-{[4-(trifluoromethyl)-1,3-thiazol-2-yl]amino}phenyl)propanamide] stands 12.9 µM; under `CC(C(=O)Nc1ccc(Cc2ccncc2)cc1)c1ccc(Nc2nc(C(F)(F)F)cs2)cc1` (stereo not shown) [Compound 44, N-[4-(pyridin-4-ylmethyl)phenyl]-2-(4-{[4-(trifluoromethyl)-1,3-thiazol-2-yl]amino}phenyl)propanamide], 11.5 µM. The value for `CC(C(=O)Nc1ccncc1)c1ccc(OS(=O)(=O)C(F)(F)F)cc1` (stereo not shown) [Compound 47, 4-[1-oxo-1-(pyridin-4-ylamino)propan-2-yl]phenyl trifluoromethanesulfonate] was 3.24 µM; that for `CC(C(=O)Nc1ccc(Cc2ccncc2)cc1)c1ccc(OS(=O)(=O)C(F)(F)F)cc1` (stereo not shown) [Compound 48, 4-{1-oxo-1-[4-(pyridin-4-ylmethyl)propan-2-yl]amino}phenyl trifluoromethanesulfonate] was 12.6 µM; that for `COc1cccc(CN(C)CCCNC(=O)C(C)c2ccc(OS(=O)(=O)C(F)(F)F)cc2)c1` (stereo not shown) [Compound 50, 4-(1-{[3-[3-methoxybenzyl(methyl)amino]propyl}amino-1-oxopropan-2-yl)phenyl trifluoromethanesulfonate] was 3.63 µM.

In the case of `Cc1ccc(OCC(O)CNC(=O)C(C)c2ccc(OS(=O)(=O)C(F)(F)F)cc2)cc1C` (stereo not shown) [Compound 51, 4-[3-(3,4-dimethylphenoxy)-2-hydroxypropyl]amino-1-oxopropan-2-yl)phenyl trifluoromethanesulfonate], the half-maximal inhibitory concentration (IC50) was 11.5 µM. As to `CCOCCCNC(=O)C(C)c1cccc(Nc2cc(OC)cc(C(F)(F)F)c2)c1` (stereo not shown) [Compound 52, 2-(3-{[3-methoxy-5-(trifluoromethyl)phenyl]amino}phenyl)-N-(3-ethoxypropyl)propanamide], the IC50 is 8.91 µM. The value for `COc1cc(Nc2cccc(C(C)C(=O)Nn3cccc3)c2)cc(C(F)(F)F)c1` (stereo not shown) [Compound 53, 2-(3-{[3-methoxy-5-(trifluoromethyl)phenyl]amino}phenyl)-N-(1H-pyrrol-1-yl)propanamide] was 14.5 µM. The value for `COc1cc(Nc2cccc(C(C)C(=O)NNC(=O)c3ccco3)c2)cc(C(F)(F)F)c1` (stereo not shown) [Compound 54, N′-{2-[3-(3-methoxy-5-(trifluoromethyl)phenylamino)phenyl]propanoyl}furan-2-carbohydrazide] was 8.51 µM; that for `COc1cc(Nc2cccc(C(C)C(=O)Nc3ccncn3)c2)cc(C(F)(F)F)c1` (stereo not shown) [Compound 55, 2-(3-{[3-methoxy-5-(trifluoromethyl)phenyl]amino}phenyl)-N-(pyrimidin-4-yl)propanamide] was 5.25 µM. Under `CCNC(=O)C(C)c1cccc(Nc2cc(OC)cc(C(F)(F)F)c2)c1` (stereo not shown) [Compound 56, N-ethyl-2-(3-{[3-methoxy-5-(trifluoromethyl)phenyl]amino}phenyl)propanamide] stands 7.76 µM; under `COc1cc(Nc2cccc(C(C)C(=O)NCCNCc3ccccc3)c2)cc(C(F)(F)F)c1` (stereo not shown) [Compound 57, 2-{3-[(3-methoxy-5-(trifluoromethyl)phenyl)amino]phenyl}-N-[2-(benzylamino)ethyl]propanamide], 3.47 µM. Take `COc1cc(Nc2cccc(C(C)C(=O)NCC(C)(C)N)c2)cc(C(F)(F)F)c1` (stereo not shown) [Compound 58, N-(2-amino-2-methylpropyl)-2-[3-{[3-methoxy-5-(trifluoromethyl)phenyl]amino}phenyl]propanamide]: the IC50 was 5.89 µM. As to `COc1cc(Nc2cccc(C(C)C(=O)NC3CCCCC3N)c2)cc(C(F)(F)F)c1` (stereo not shown) [Compound 59, N-(2-aminocyclohexyl)-2-[3-{[3-methoxy-5-(trifluoromethyl)phenyl]amino}phenyl]propanamide], the IC50 is 6.92 µM. Under `COC(=O)C(CNC(=O)OC(C)(C)C)NC(=O)C(C)c1ccc(Oc2cccc3ccccc23)cc1` (stereo not shown) [Compound 60, methyl 3-[(tert-butoxycarbonyl)amino]-2-[4-(naphthalen-1-yloxyphenyl)propanoyl]aminopropanoate] stands 10.5 µM; under `CC(C(=O)NCCNCc1ccccc1)c1ccc(Oc2cccc3ccccc23)cc1` (stereo not shown) [Compound 61, N-[2-(benzylamino)ethyl]-2-[4-(naphthalen-1-yloxy)phenyl]propanamide], 3.24 µM.

With `CC(C(=O)NCCCN(C)C)c1ccc(Oc2cccc3ccccc23)cc1` (stereo not shown) [Compound 62, N-[3-(dimethylamino)propyl]-2-[4-(naphthalen-1-yloxy)phenyl]propanamide], the 50% inhibitory concentration (IC50) is 3.8 µM. The value for `CC(C(=O)NCCCNC1CCCCC1)c1ccc(Oc2cccc3ccccc23)cc1` (stereo not shown) [Compound 63, N-[3-(cyclohexylamino)propyl]-2-[4-(naphthalen-1-yloxy)phenyl]propanamide] was 3.89 µM.

Regarding `CC(C(=O)Nn1cnnc1)c1ccc(Oc2cccc3ccccc23)cc1` (stereo not shown) [Compound 64, 2-[4-(naphthalen-1-yloxy)phenyl]-N-(4H-1,2,4-triazol-4-yl)propanamide], the half-maximal inhibitory concentration (IC50) was 8.91 µM. Under `CC(C(=O)NCCC1CCCN1C)c1ccc(Oc2cccc3ccccc23)cc1` (stereo not shown) [Compound 65, 2-[4-(naphthalen-1-yloxy)phenyl]-N-[2-(1-methylpyrrolidin-2-yl)ethyl]propanamide] stands 4.79 µM; under `CC(=O)NCCNC(=O)C(C)c1ccc(Oc2cccc3ccccc23)cc1` (stereo not shown) [Compound 66, N-[2-(acetylamino)ethyl]-2-[4-(naphthalen-1-yloxy)phenyl]propanamide], 6.61 µM. The value for `CC(C(=O)NCCN1CCOCC1)c1ccc(Oc2cccc3ccccc23)cc1` (stereo not shown) [Compound 67, 2-[4-(naphthalen-1-yloxy)phenyl]-N-[2-(morpholin-4-yl)ethyl]propanamide] was 4.07 µM; that for `CC(C(=O)Nc1ccncc1)c1ccc(Oc2cccc(F)c2)cc1` (stereo not shown) [Compound 68, 2-[4-(3-fluroophenoxy)phenyl]-N-(pyridin-4-yl)propanamide] was 6.17 µM; that for `CC(C(=O)Nc1ccncn1)c1ccc(N2CCCCC2)cc1` (stereo not shown) [Compound 69, 2-[4-(piperidin-1-yl)phenyl]-N-(pyrimidin-4-yl)propanamide] was 14.1 µM.

For the compound `CC(C(=O)NCCC1CCN(c2ccncc2)CC1)c1ccc(Nc2ccccc2-n2cccc2)cc1` (stereo not shown) [Compound 70, N-{2-[1-(pyridin-4-yl)piperidin-4-yl]ethyl}-2-(4-{[2-(1H-pyrrol-1-yl)phenyl]amino}phenyl)propanamide], the half-maximal inhibitory concentration (IC50) was 0.708 µM. Under `CC(C(=O)Nc1ccncc1)c1ccc(Nc2ccc(F)cc2)cc1` (stereo not shown) [Compound 71, 2-{4-[(4-fluorophenyl)amino]phenyl}-N-(pyridin-4-yl)propanamide] stands 4.47 µM. Take `CC(C(=O)Nc1ccncn1)c1ccc(Oc2ccc(F)cc2)cc1` (stereo not shown) [Compound 72, 2-[4-(4-fluorophenoxy)phenyl]-N-(pyrimidin-4-yl)propanamide]: the 50% inhibitory concentration (IC50) is 3.39 µM. Under `CC(C(=O)Nc1ccncc1)c1cccc(Oc2ccc3ccccc3c2)c1` (stereo not shown) [Compound 73, 2-[3-(naphthalen-2-yloxy)phenyl]-N-(pyridin-4-yl)propanamide] stands 2.82 µM; under `CC(C(=O)Nc1ccncc1)c1cccc(Nc2ccc(F)cc2)c1` (stereo not shown) [Compound 74, 2-{3-[(4-fluorophenyl)amino]phenyl}-N-(pyridin-4-yl)propanamide], 1 µM. For the compound `CC(C(=O)Nc1cnccn1)c1ccc(Oc2ccc(F)cc2)cc1` (stereo not shown) [Compound 75, 2-[4-(4-fluorophenoxy)phenyl]-N-(pyrazin-2-yl)propanamide], the IC50 is 1.2 µM.
